In US7605272B2, “IGF-1R inhibitor” (Kyowa Hakko Kirin Co., Ltd., priority 2005, dated 2009):
Where a name gives a salt, the structure may show the parent alone.

Columns and labels:
Colo205 = experiment: Cytostatic activity on human colon cancer cell line Colo205 (WST-1); type: cell-based; conditions: Homo sapiens, COLO 205, 72 h, 10 μmol/L, read-out: cytostatic rate (%) Colo205 (10 μmol/L)
Protocol: (§1) The cytostatic rates of the test compound on the human pancreatic cancer cell line AsPC-1 and the human colon cancer cell line Colo205 were determined in the following manner.
(§2) For culturing AsPC-1, RPMI 1640 medium containing 20% fetal bovine serum, 1 mmol/L sodium pyruvate, 10 mmol/L HEPES, 4.5 g/L glucose and penicillin/streptomycin (1:1). The Colo205 cell was cultured using RPMI 1640 medium containing 10% fetal bovine serum, 1 mmol/L sodium pyruvate, 10 mmol/L HEPES, 4.5 g/L glucose and penicillin/streptomycin (1:1) was used. Each 80 μL of the AsPC-1 cell having a concentration of 5×10^4 cells/mL (or the Colo205 having a concentration of 5×10^4 cells/mL) was inoculated to wells of a TC MICROWELL 96F plate (Nalge Nunc International, Catalog No. 167008) and was cultured in a 5% carbon dioxide gas incubator at 37° C. for 24 hours. Each 20 μL of a solution of the test compound in DMSO which was prepared to make the final concentration to 1 μmol/L or 10 μmol/L, was added to each well. Each 20 μL of DMSO was added to the control well and the blank well to a final concentration of 0.1%. After adding the test compound, the cell was incubated in a 5% carbon dioxide gas incubator at 37° C. for 72 hours except for the blank well. After adding 20 μL of WST-1 reagent which was diluted to 50% by RPMI medium to each well, the cells were further incubated at 37° C. for 2 hours. Then, the absorbances at 450 nm (reference wavelength: 690 nm) were determined with a microplate spectrophotometer SPECTRA max 340PC. The cytostatic rate (%) was then determined in the similar manner to the above multiple myeloma cell lines.

NCI-H929 = experiment: Cytostatic activity on human multiple myeloma cell line NCI-H929 (WST-1); type: cell-based; conditions: 72 hours; for inhibition at 10 µM / inhibition at 1 µM: Homo sapiens, NCI-H929, 72 h; for inhibition at 10 µM: read-out: cytostatic rate (%) H929 (10 μmol/L); for inhibition at 1 µM: 1 μmol/L, read-out: cytostatic rate (%) H929 (1 μmol/L)
Summary of the method: (§3)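 Cells pre-cultured 24 h at 37 °C, 5% CO2, then exposed 72 h to compound at final 1 or 10 μmol/L (0.1% DMSO). WST-1 added for 2 h, absorbance at 450 nm (ref 690 nm). Cytostatic rate = 100 minus relative growth, with DMSO control as 100% and blank as 0%.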

IGF-1R = molecular target: T1, IGF-1R (Homo sapiens, UniProt P08069); experiment: IGF-1R inhibitory activity (kinase reaction, time-resolved fluoroimmunoassay); type: biochemical; conditions: test compound 10 μmol/L
T1 construct: purchased Upstate Co. 14-465
Summary of the method: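 Compounds were tested at a single 10 μmol/L concentration. Each was incubated with recombinant IGF-1R (200 μg/L), 10 mmol/L ATP, MgCl2/MnCl2 and Na3VO4 (pH 7.5) on immobilized poly(Glu-Tyr) peptide for 30 min at 24° C. Eu-anti-phosphotyrosine time-resolved fluorescence (340/615 nm) gave relative activity against no-compound and no-enzyme wells, reported as % inhibition.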

AsPC-1 = experiment: Cytostatic activity on human pancreatic cancer cell line AsPC-1 (WST-1); type: cell-based; conditions: Homo sapiens, ASPC1, 72 h, 10 μmol/L, read-out: cytostatic rate (%) AsPC-1 (10 μmol/L)
Protocol: as §1, §2

KMS-11 = experiment: Cytostatic activity on human multiple myeloma cell line KMS-11 (WST-1); type: cell-based; conditions: 72 hours; for inhibition at 10 µM / inhibition at 1 µM: Homo sapiens, KMS-11, 72 h; for inhibition at 10 µM: read-out: cytostatic rate (%) KMS-11 (10 μmol/L); for inhibition at 1 µM: 1 μmol/L, read-out: cytostatic rate (%) KMS-11 (1 μmol/L)
Summary of the method: as §3

[1] = IGF-1R active recombinant enzyme

T1 sequence (P08069 959-1367 limits assumed): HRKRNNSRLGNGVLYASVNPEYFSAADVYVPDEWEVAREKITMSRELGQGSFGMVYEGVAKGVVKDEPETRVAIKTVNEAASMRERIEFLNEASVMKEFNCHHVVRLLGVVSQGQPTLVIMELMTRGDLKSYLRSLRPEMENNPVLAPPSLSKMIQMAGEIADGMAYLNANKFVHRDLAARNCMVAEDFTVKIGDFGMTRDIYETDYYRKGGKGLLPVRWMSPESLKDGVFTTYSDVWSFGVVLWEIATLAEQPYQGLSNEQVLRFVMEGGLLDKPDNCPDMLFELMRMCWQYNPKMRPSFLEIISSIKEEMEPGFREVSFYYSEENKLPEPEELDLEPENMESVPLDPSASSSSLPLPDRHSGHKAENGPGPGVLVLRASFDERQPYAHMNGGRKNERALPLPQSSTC

SMILES: O=C(Nc1ccccc1/C=C/c1n[nH]c2ccccc12)c1ccccc1 [Compound 85, (E)-N-{2-[2-(1H-indazol-3-yl)vinyl]phenyl}benzamide]
- inhibition at 10 µM (Colo205): 116%
- inhibition at 10 µM (NCI-H929; 10 μmol/L): 134%
- inhibition at 10 µM (IGF-1R): 99.5%
- inhibition at 10 µM (AsPC-1): 125%
- inhibition at 10 µM (KMS-11; 10 μmol/L): 124%

SMILES: Nc1cccc2c1C(=O)N(c1cc3c(cc1/C=C/c1n[nH]c4ccccc14)OCO3)C2=O [Compound 152, (E)-4-amino-2-{6-[2-(1H-indazol-3-yl)vinyl]benzo[1,3]dioxol-5-yl}isoindole-1,3-dione]
- inhibition at 10 µM (Colo205): 86.7%
- inhibition at 10 µM (NCI-H929; 10 μmol/L): 122%
- inhibition at 10 µM (IGF-1R; [1]): 99.5%
- inhibition at 10 µM (AsPC-1): 72.1%
- inhibition at 10 µM (KMS-11; 10 μmol/L): 116%

SMILES: Cc1ccsc1C(=O)Nc1cc(C(=O)N2CCOCC2)ccc1/C=C/c1n[nH]c2ccccc12 [Compound 100, (E)-N-{2-[2-(1H-indazol-3-yl)vinyl]-5-(morpholin-4-ylcarbonyl)phenyl}-3-methylthiophene-2-carboxamide]
- inhibition at 10 µM (Colo205): 121%
- inhibition at 10 µM (NCI-H929; 10 μmol/L): 122%
- inhibition at 10 µM (IGF-1R): 98.6%
- inhibition at 10 µM (AsPC-1): 108%
- inhibition at 10 µM (KMS-11; 10 μmol/L): 115%

SMILES: Nc1ccc2c(c1)C(=O)N(c1cc3c(cc1/C=C/c1n[nH]c4ccccc14)OCO3)C2=O [Compound 153, (E)-5-amino-2-{6-[2-(1H-indazol-3-yl)vinyl]benzo[1,3]dioxol-5-yl}isoindole-1,3-dione]
- inhibition at 10 µM (Colo205): 114%
- inhibition at 10 µM (NCI-H929; 10 μmol/L): 122%
- inhibition at 10 µM (IGF-1R; [1]): 99.8%
- inhibition at 10 µM (AsPC-1): 77%
- inhibition at 10 µM (KMS-11; 10 μmol/L): 129%

SMILES: O=C(Nc1ccccc1/C=C/c1n[nH]c2ccccc12)c1cc2ccccc2s1 [Compound 46, (E)-N-{2-[2-(1H-indazol-3-yl)vinyl]phenyl}benzo[b]thiophene-2-carboxamide]
- inhibition at 10 µM (Colo205): 112%
- inhibition at 10 µM (NCI-H929; 10 μmol/L): 118%
- inhibition at 10 µM (IGF-1R; [1]): 97.8%
- inhibition at 10 µM (AsPC-1): 120%
- inhibition at 10 µM (KMS-11; 10 μmol/L): 115%

SMILES: Cc1ccsc1C(=O)Nc1cc(CN(CCO)CCN2CCOCC2)ccc1/C=C/c1n[nH]c2ccccc12 [Compound 253, (E)-N-{5-[N-(2-hydroxyethyl)-2-(morpholin-4-yl)ethylaminomethyl]-2-[2-(1H-indazol-3-yl)vinyl]phenyl}-3-methylthiophene-2-carboxamide]
- inhibition at 10 µM (Colo205): 122%
- inhibition at 1 µM (NCI-H929): 119%
- inhibition at 10 µM (IGF-1R; [1]): 98.7%
- inhibition at 10 µM (AsPC-1): 100%
- inhibition at 1 µM (KMS-11): 109%

SMILES: Cc1ccsc1C(=O)Nc1cc(CN2CC[C@@H](N)C2)ccc1/C=C/c1n[nH]c2ccccc12 [Compound 233, (R)-(E)-N-{5-(3-aminopyrrolidin-1-ylmethyl)-2-[2-(1H-indazol-3-yl)vinyl]phenyl}-3-methylthiophene-2-carboxamide]
- inhibition at 10 µM (Colo205): 123%
- inhibition at 1 µM (NCI-H929): 118%
- inhibition at 10 µM (IGF-1R; [1]): 106%
- inhibition at 10 µM (AsPC-1): 89.1%
- inhibition at 1 µM (KMS-11): 102%

SMILES: Nc1cccc2c1C(=O)N(c1cc(C(=O)N3CCOCC3)ccc1/C=C/c1n[nH]c3ccccc13)C2=O [Compound 288, (E)-4-amino-N-{2-[2-(1H-indazol-3-yl)vinyl]-5-(morpholin-4-ylcarbonyl)phenyl}isoindole-1,3-dione]
- inhibition at 10 µM (Colo205): 120%
- inhibition at 1 µM (NCI-H929): 118%
- inhibition at 10 µM (IGF-1R; [1]): 97.9%
- inhibition at 10 µM (AsPC-1): 94.5%
- inhibition at 1 µM (KMS-11): 109%

SMILES: Cc1ccsc1C(=O)Nc1cc(C(=O)N2CCN(S(C)(=O)=O)CC2)ccc1/C=C/c1n[nH]c2ccccc12 [Compound 222, (E)-N-{2-[2-(1H-indazol-3-yl)vinyl]-5-(4-methanesulfonylpiperazin-1-ylcarbonyl)phenyl}-3-methylthiophene-2-carboxamide hydrochloride]
- inhibition at 10 µM (Colo205): 123%
- inhibition at 1 µM (NCI-H929): 118%
- inhibition at 10 µM (IGF-1R; [1]): 98.7%
- inhibition at 10 µM (AsPC-1): 114%
- inhibition at 1 µM (KMS-11): 108%

SMILES: Cc1ccsc1C(=O)Nc1cc(CO)ccc1/C=C/c1n[nH]c2ccccc12 [Compound 108, (E)-N-{5-hydroxymethyl-2-[2-(1H-indazol-3-yl)vinyl]phenyl}-3-methylthiophene-2-carboxamide]
- inhibition at 10 µM (Colo205): 121%
- inhibition at 10 µM (NCI-H929; 10 μmol/L): 123%
- inhibition at 10 µM (IGF-1R): 95%
- inhibition at 10 µM (AsPC-1): 87.9%
- inhibition at 10 µM (KMS-11; 10 μmol/L): 110%

SMILES: COCCN(CCN(C)C)C(=O)c1ccc(/C=C/c2n[nH]c3ccccc23)c(NC(=O)c2sccc2C)c1 [Compound 241, (E)-N-{5-[N-(2-dimethylaminoethyl)-N-(2-methoxyethyl)carbamoyl]-2-[2-(1H-indazol-3-yl)vinyl]phenyl}-3-methylthiophene-2-carboxamide hydrochloride]
- inhibition at 10 µM (Colo205): 121%
- inhibition at 1 µM (NCI-H929): 112%
- inhibition at 10 µM (IGF-1R; [1]): 101%
- inhibition at 10 µM (AsPC-1): 104%
- inhibition at 1 µM (KMS-11): 118%

SMILES: O=C(Nc1ccccc1/C=C/c1n[nH]c2ccccc12)c1cccc(F)c1 [Compound 7, (E)-3-fluoro-N-{2-[2-(1H-indazol-3-yl)vinyl]phenyl}benzamide]
- inhibition at 10 µM (NCI-H929; 10 μmol/L): 115%
- inhibition at 10 µM (IGF-1R; [1]): 98.6%
- inhibition at 10 µM (KMS-11; 10 μmol/L): 121%

SMILES: O=C(Nc1cc(C(=O)N2CCN(CCO)CC2)ccc1/C=C/c1n[nH]c2ccccc12)c1cccs1 [Compound 289, (E)-N-{5-[4-(2-hydroxyethyl)piperazin-1-ylcarbonyl]-2-[2-(1H-indazol-3-yl)vinyl]phenyl}thiophene-2-carboxamide]
- inhibition at 1 µM (NCI-H929): 102%
- inhibition at 10 µM (IGF-1R; [1]): 93.5%
- inhibition at 1 µM (KMS-11): 73.6%

SMILES: O=C(Nc1ccccc1/C=C/c1n[nH]c2ccccc12)C1CCCC1 [Compound 24, (E)-N-{2-[2-(1H-indazol-3-yl)vinyl]phenyl}cyclopentanecarboxamide]
- inhibition at 10 µM (NCI-H929; 10 μmol/L): 116%
- inhibition at 10 µM (IGF-1R; [1]): 97.4%
- inhibition at 10 µM (KMS-11; 10 μmol/L): 110%

SMILES: Nc1cccc2c1C(=O)N(c1ccc(F)cc1/C=C/c1n[nH]c3ccccc13)C2=O [Compound 254, (E)-4-amino-2-{4-fluoro-2-[2-(1H-indazol-3-yl)vinyl]phenyl}isoindole-1,3-dione]
- inhibition at 1 µM (NCI-H929): 116%
- inhibition at 10 µM (IGF-1R; [1]): 99.5%
- inhibition at 1 µM (KMS-11): 81.2%

SMILES: Cc1ccsc1C(=O)Nc1cc(CN2CCOCC2)ccc1/C=C/c1n[nH]c2ccccc12 [Compound 224, (E)-N-{2-[2-(1H-indazol-3-yl)vinyl]-5-(morpholin-4-ylmethyl)phenyl}-3-methylthiophene-2-carboxamide hydrochloride]
- inhibition at 1 µM (NCI-H929): 119%
- inhibition at 10 µM (IGF-1R; [1]): 100%
- inhibition at 1 µM (KMS-11): 119%

SMILES: COCCOc1ccc(C(=O)Nc2ccccc2/C=C/c2n[nH]c3ccccc23)cc1 [Compound 78, (E)-N-{2-[2-(1H-indazol-3-yl)vinyl]phenyl}-4-(2-methoxyethoxy)benzamide]
- inhibition at 10 µM (NCI-H929; 10 μmol/L): 114%
- inhibition at 10 µM (IGF-1R; [1]): 100%
- inhibition at 10 µM (KMS-11; 10 μmol/L): 107%

SMILES: Cc1ccsc1C(=O)Nc1cc(C(=O)N2CCCC2)ccc1/C=C/c1n[nH]c2ccccc12 [Compound 116, (E)-N-{2-[2-(1H-indazol-3-yl)vinyl]-5-(pyrrolidin-1-ylcarbonyl)phenyl}-3-methylthiophene-2-carboxamide]
- inhibition at 10 µM (NCI-H929; 10 μmol/L): 118%
- inhibition at 10 µM (IGF-1R): 103%
- inhibition at 10 µM (KMS-11; 10 μmol/L): 114%

SMILES: CCC(O)(CC)C(=O)Nc1ccccc1/C=C/c1n[nH]c2ccccc12 [Compound 45, (E)-2-ethyl-2-hydroxy-N-{2-[2-(1H-indazol-3-yl)vinyl]phenyl}butylamide]
- cytostatic rate (%) H929 (10 μmol/L) (NCI-H929; 10 μmol/L): 115.0%
- inhibitory activity (%) at 10 μmol/L (IGF-1R; [1]): 97.4%
- cytostatic rate (%) KMS-11 (10 μmol/L) (KMS-11; 10 μmol/L): 98.3%

SMILES: O=C(Nc1ccccc1/C=C/c1n[nH]c2ccccc12)c1cccnc1 [Compound 6, (E)-N-{2-[2-(1H-indazol-3-yl)vinyl]phenyl}nicotinamide]
- inhibition at 10 µM (NCI-H929; 10 μmol/L): 115%
- inhibition at 10 µM (IGF-1R; [1]): 97.8%
- inhibition at 10 µM (KMS-11; 10 μmol/L): 120%
